Source: PubChem BioAssay (NCI)
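Test compounds were applied to cells in 96-well plates for 48 hours at 5 doses. TGI: total growth inhibition.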

What was measured:
Assay in all cases: NCI tumour cell line growth inhibition, 48 h
[1] = system: PC-3 prostate
[2] = system: MOLT-4 leukemia
[3] = system: M14 melanoma
[4] = system: U251 CNS
[5] = system: OVCAR-4 ovarian
[6] = system: SR leukemia
[7] = system: SW-620 colon
[8] = system: A549 NSCLC
[9] = system: SNB-19 CNS
[10] = system: BT-549 breast
[11] = system: SF-268 CNS
[12] = system: KM12 colon
[13] = system: NCI-H522 lung
[14] = system: HCC-2998 colon
[15] = system: OVCAR-5 ovarian
[16] = system: EKVX NSCLC
[17] = system: HT29 colon
[18] = system: SN12C renal
[19] = system: 786-0 renal
[20] = system: NCI-H23 lung
[21] = system: UACC-62 melanoma
[22] = system: NCI-H226 lung
[23] = system: T-47D breast
[24] = system: SK-MEL-2 melanoma
[25] = system: MDA-MB-231 breast
[26] = system: NCI-H460 lung
[27] = system: MALME-3M melanoma
[28] = system: NCI/ADR-RES ovarian
[29] = system: COLO 205 colon
[30] = system: CAKI-1 renal
[31] = system: HOP-92 NSCLC
[32] = system: UACC-257 melanoma
[33] = system: SK-MEL-5 melanoma
[34] = system: SK-MEL-28 melanoma
[35] = system: K-562 leukemia
[36] = system: SNB-75 CNS
[37] = system: SF-295 CNS
[38] = system: SK-OV-3 ovarian
[39] = system: ACHN renal
[40] = system: RPMI-8226 leukemia
[41] = system: HOP-62 NSCLC
[42] = system: OVCAR-8 ovarian
[43] = system: RXF 393 renal
[44] = system: UO-31 renal
[45] = system: OVCAR-3 ovarian
[46] = system: TK-10 renal
[47] = system: CCRF-CEM leukemia
[48] = system: DU-145 prostate
[49] = system: LOX IMVI melanoma
[50] = system: MCF7 breast
[51] = system: HS 578T breast
[52] = system: MDA-MB-435
[53] = system: HL-60(TB) leukemia
[54] = system: IGROV1 ovarian
[55] = system: HCT-15 colon
[56] = system: HCT-116 colon
[57] = system: SF-539 CNS
[58] = system: MDA-N
[59] = system: A498 renal

Cc1cc(C)nc(NS(=O)(=O)c2ccc(NNC(=O)c3cccc4c(NNc5ccc(S(=O)(=O)Nc6nc(C)cc(C)n6)cc5)c5ccccc5nc34)cc2)n1
TGI [1]: 51 µM
TGI [2]: 66.8 µM
TGI [3]: 32.6 µM
TGI [4]: 46.6 µM
TGI [5]: 68 µM
TGI [6]: 53.1 µM
TGI [7]: 48.3 µM
TGI [8]: 96.8 µM
TGI [9]: 72.7 µM
TGI [10]: 71.4 µM
TGI [11]: 61 µM
TGI [12]: 35.6 µM
TGI [13]: 40.8 µM
TGI [14]: 37.7 µM
TGI [15]: 40.3 µM
TGI [16]: 40.5 µM
TGI [17]: 37.8 µM
TGI [18]: > 100 µM
TGI [19]: 54.1 µM
TGI [20]: 51.6 µM
TGI [21]: 58.7 µM
TGI [22]: 55.9 µM
TGI [23]: 78.9 µM
TGI [24]: 57.5 µM
TGI [25]: 44.9 µM
TGI [26]: 51.1 µM
TGI [27]: 51.8 µM
TGI [28]: > 100 µM
TGI [29]: 46.3 µM
TGI [30]: 41.8 µM
TGI [31]: 70.3 µM
TGI [32]: 71.3 µM
TGI [33]: 33 µM
TGI [34]: 48.7 µM
TGI [35]: 52.4 µM
TGI [36]: 52.3 µM
TGI [37]: 88.1 µM
TGI [38]: 87.1 µM
TGI [39]: 33.3 µM
TGI [40]: 64.9 µM
TGI [41]: 85.9 µM
TGI [42]: 43.4 µM
TGI [43]: 48.7 µM
TGI [44]: 51.1 µM
TGI [45]: 66.5 µM
TGI [46]: 67.7 µM
TGI [47]: 51.2 µM
TGI [48]: 36.8 µM
TGI [49]: 31.3 µM
TGI [50]: 62.4 µM
TGI [51]: 71.9 µM
TGI [52]: 39.4 µM
TGI [53]: 47 µM
TGI [54]: 57.1 µM
TGI [55]: 36.1 µM
TGI [56]: 48.2 µM
TGI [57]: 43.6 µM
TGI [58]: 43.1 µM

COc1ccc(/C=C(\C(=O)OCC(C)C)c2ccc(OC)c(OC)c2)cc1OC
TGI [1]: > 100 µM
TGI [2]: > 100 µM
TGI [59]: > 100 µM
TGI [3]: > 100 µM
TGI [4]: > 100 µM
TGI [5]: > 100 µM
TGI [6]: > 100 µM
TGI [7]: > 100 µM
TGI [8]: > 100 µM
TGI [9]: > 100 µM
TGI [10]: > 100 µM
TGI [11]: > 100 µM
TGI [13]: > 100 µM
TGI [14]: > 100 µM
TGI [15]: > 100 µM
TGI [16]: > 100 µM
TGI [17]: > 100 µM
TGI [18]: > 100 µM
TGI [19]: > 100 µM
TGI [20]: > 100 µM
TGI [21]: > 100 µM
TGI [22]: > 100 µM
TGI [23]: > 100 µM
TGI [24]: > 100 µM
TGI [25]: 61.5 µM
TGI [26]: > 100 µM
TGI [28]: > 100 µM
TGI [29]: > 100 µM
TGI [30]: > 100 µM
TGI [31]: > 100 µM
TGI [32]: > 100 µM
TGI [33]: > 100 µM
TGI [34]: > 100 µM
TGI [35]: > 100 µM
TGI [36]: > 100 µM
TGI [37]: > 100 µM
TGI [39]: > 100 µM
TGI [40]: > 100 µM
TGI [41]: > 100 µM
TGI [42]: > 100 µM
TGI [43]: > 100 µM
TGI [44]: > 100 µM
TGI [45]: > 100 µM
TGI [46]: > 100 µM
TGI [47]: > 100 µM
TGI [48]: > 100 µM
TGI [49]: > 100 µM
TGI [50]: > 100 µM
TGI [51]: > 100 µM
TGI [52]: > 100 µM
TGI [53]: > 100 µM
TGI [54]: > 100 µM
TGI [55]: > 100 µM
TGI [56]: > 100 µM
TGI [57]: > 100 µM
TGI [58]: > 100 µM

NC(N)=NS(=O)(=O)c1ccc(Nc2c3ccccc3nc3c(C(=O)NC(CO)(CO)CO)cccc23)cc1
TGI [1]: > 100 µM
TGI [2]: > 100 µM
TGI [59]: 72.6 µM
TGI [3]: 68.3 µM
TGI [4]: > 100 µM
TGI [6]: > 100 µM
TGI [7]: > 100 µM
TGI [8]: 38.2 µM
TGI [9]: > 100 µM
TGI [10]: 36.7 µM
TGI [11]: > 100 µM
TGI [12]: 38.5 µM
TGI [13]: 30.9 µM
TGI [14]: > 100 µM
TGI [15]: 65.4 µM
TGI [16]: > 100 µM
TGI [17]: 61.1 µM
TGI [18]: > 100 µM
TGI [19]: 46.2 µM
TGI [20]: > 100 µM
TGI [21]: 94.6 µM
TGI [23]: > 100 µM
TGI [24]: 50.8 µM
TGI [25]: > 100 µM
TGI [26]: 16.6 µM
TGI [27]: 45.3 µM
TGI [28]: > 100 µM
TGI [29]: 51.7 µM
TGI [30]: > 100 µM
TGI [31]: 48.9 µM
TGI [32]: > 100 µM
TGI [33]: 57.5 µM
TGI [34]: > 100 µM
TGI [35]: > 100 µM
TGI [36]: 18.7 µM
TGI [37]: > 100 µM
TGI [38]: > 100 µM
TGI [39]: 40.8 µM
TGI [40]: 58.5 µM
TGI [41]: 87.4 µM
TGI [42]: > 100 µM
TGI [44]: 95.2 µM
TGI [45]: > 100 µM
TGI [46]: 94.5 µM
TGI [47]: 54.8 µM
TGI [48]: > 100 µM
TGI [49]: > 100 µM
TGI [50]: 95.3 µM
TGI [51]: 41.2 µM
TGI [52]: > 100 µM
TGI [53]: 71.4 µM
TGI [54]: > 100 µM
TGI [55]: > 100 µM
TGI [58]: > 100 µM

c1ccc(/N=N\Nc2ccc(-c3nc4ccccc4o3)cc2)nc1
TGI [1]: > 100 µM
TGI [2]: 61.1 µM
TGI [59]: > 100 µM
TGI [3]: > 100 µM
TGI [4]: > 100 µM
TGI [5]: > 100 µM
TGI [6]: > 100 µM
TGI [7]: 42.1 µM
TGI [8]: > 100 µM
TGI [9]: > 100 µM
TGI [10]: > 100 µM
TGI [11]: > 100 µM
TGI [12]: > 100 µM
TGI [13]: > 100 µM
TGI [14]: 55.4 µM
TGI [15]: > 100 µM
TGI [16]: 88.2 µM
TGI [17]: > 100 µM
TGI [18]: > 100 µM
TGI [19]: > 100 µM
TGI [20]: > 100 µM
TGI [21]: > 100 µM
TGI [23]: 87.1 µM
TGI [24]: > 100 µM
TGI [25]: > 100 µM
TGI [26]: > 100 µM
TGI [27]: > 100 µM
TGI [28]: > 100 µM
TGI [29]: 49.2 µM
TGI [31]: > 100 µM
TGI [32]: 83 µM
TGI [33]: 30.3 µM
TGI [34]: > 100 µM
TGI [35]: > 100 µM
TGI [36]: 85.8 µM
TGI [38]: > 100 µM
TGI [39]: > 100 µM
TGI [41]: > 100 µM
TGI [42]: > 100 µM
TGI [44]: > 100 µM
TGI [45]: > 100 µM
TGI [46]: > 100 µM
TGI [48]: > 100 µM
TGI [49]: > 100 µM
TGI [50]: > 100 µM
TGI [51]: > 100 µM
TGI [52]: > 100 µM
TGI [53]: > 100 µM
TGI [54]: > 100 µM
TGI [55]: > 100 µM
TGI [56]: > 100 µM
TGI [57]: > 100 µM
TGI [58]: > 100 µM
